The results in this text go back to patent US20240270759A1, “Preparation of SHP2 phosphatase inhibitors and its applications” (Ya Therapeutics Inc, priority 2021, published 2024).

This assay has as its target T1, SHP2 full-length protein (Homo sapiens, UniProt Q06124).
T1 construct: purchased BPS Bioscience #79330
T1 sequence (Q06124 1-593): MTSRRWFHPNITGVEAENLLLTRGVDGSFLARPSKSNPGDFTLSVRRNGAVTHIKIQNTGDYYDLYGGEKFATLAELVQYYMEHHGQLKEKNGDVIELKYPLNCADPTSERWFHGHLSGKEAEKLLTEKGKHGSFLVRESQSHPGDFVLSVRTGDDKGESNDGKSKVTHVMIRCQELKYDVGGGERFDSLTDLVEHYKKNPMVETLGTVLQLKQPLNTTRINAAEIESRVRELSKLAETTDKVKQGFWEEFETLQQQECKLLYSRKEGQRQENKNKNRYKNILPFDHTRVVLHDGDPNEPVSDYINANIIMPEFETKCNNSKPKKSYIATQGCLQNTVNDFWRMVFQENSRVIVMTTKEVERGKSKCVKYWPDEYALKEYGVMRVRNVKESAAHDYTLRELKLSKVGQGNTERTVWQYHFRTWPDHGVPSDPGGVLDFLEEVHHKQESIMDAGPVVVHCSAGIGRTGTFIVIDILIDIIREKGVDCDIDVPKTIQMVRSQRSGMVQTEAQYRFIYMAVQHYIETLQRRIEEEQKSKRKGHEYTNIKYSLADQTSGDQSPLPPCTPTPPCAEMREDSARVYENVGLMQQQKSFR
The assay is described as follows: SHP2 allosteric inhibition experiment (Homogeneous Full Length SHP-2 Assay Kit). To be noted: full-length SHP2 0.06 nM with SHP-2 activating peptide; ten-point, 1 μM to 0.05 nM; read-out: IC50 Values of Compounds Inhibiting SHP2. It is filed as biochemical. The source says: The following further describes and explains the present invention in combination with test examples, but these examples are not meant to limit the scope of the present invention. SHP2 allosteric inhibition experiment
The purpose of this test is to measure the ability of the compounds to inhibit the allosteric activity of the SHP2 full-length protein. Experimental equipment: a centrifuge (5810R) is purchased from Eppendorf Company; pipettes are purchased from Eppendorf Company and Rainin Company, and microplate readers are purchased from BioTek Company of the United States, SynergyH1 multimode microplate reader.
Experimental method: Homogeneous Full Length SHP-2 Assay Kit (BPS Bioscience, #79330) is used to detect SHP2 activity in vitro. First, add 18 μL of Master Mix to 96-well low-adsorption microplate (NUNC, #267342), that is, 0.5 μL of SHP-2 activating Peptide and 5 mM DTT are included in the reaction buffer with a final concentration of 1×. After centrifugation, add 5 μL of the compound to be tested in DMSO (final DMSO content is 1% (V/V) in each well: dissolve the compound to be tested in DMSO to 1 mM, conduct triple dilution with a total of 10 concentration levels ranging from 1 μM to 0.05 nM in the reaction buffer. After diluting SHP2 in 1× reaction buffer to a final concentration of 0.06 nM, add it to the reaction microwell plate, 2 μL per well. Set a full activity control ([…]) and a full inhibition control (without SHP-2) on the reaction plate, and incubate the reaction mixture at room temperature for 60 minutes after centrifugation.
After incubation, add 25 μL of Substrate solution to each well, containing Substrate with a final concentration of 10 μM and DTT with a final concentration of 5 mM, and after centrifugation, continue to incubate at room temperature for 30 minutes. After the reaction, set the excitation wavelength at 340 nm, the emission wavelength at 455 nm, and the gain value to 75 on the Synergy H1 microplate reader (Biotek) for reading.
Take the full activity control and full inhibition control as the values of Max and Min, and calculate the percentage inhibition rate of the wells treated with the compound based on the positive control wells (DMSO control wells) and negative control wells (no kinase added) on the reaction plate, (inhibition rate percentage=100−[(test compound−Min average value)/(Max average value−Min average value)]×100%. IC50 values of test compounds are calculated by fitting percentage of inhibition and ten-point concentration data to a 4-parameter nonlinear logic formula using GraphPad prism.
A word on the IC50: it is the concentration needed to halve the response being measured. Take `C[C@@H]1OCC2(CCN(c3ccc4nc(Sc5cccc(NC(=O)c6ccncn6)c5Cl)ncc4n3)CC2)[C@@H]1N` [Compound 83, N-(3-((6-((3S,4S)-4-amino-3-methyl-2-oxa-8-azaspiro[4.5]decane-8-yl)pyridinyl[3,2-d]pyrimidine-2-yl)mercapto)-2-chlorophenyl)pyrimidine-4-carboxamide]: the IC50 was ≤ 10 nM.

As for `C[C@@H]1OCC2(CCN(c3cnc4nc(Sc5cccc(NC(=O)c6cnccn6)c5Cl)ncc4n3)CC2)[C@@H]1N` [Compound 84, N-(3-((6-((3S,4S)-4-amino-3-methyl-2-oxa-8-azaspiro[4.5]decane-8-yl)pteridine-2-yl)mercapto)-2-chlorophenyl)pyrazine-2-carboxamide], the half-maximal inhibitory concentration (IC50) is ≤ 10 nM. With `C[C@@H]1OCC2(CCN(c3ncc4nc(Sc5cccc(NC(=O)c6cnccn6)c5Cl)cnc4n3)CC2)[C@@H]1N` [Compound 85, N-(3-((2-((3S,4S)-4-amino-3-methyl-2-oxa-8-azaspiro[4.5]decane-8-yl)pteridine-6-yl)mercapto)-2-chlorophenyl)pyrazine-2-carboxamide], the IC50 is ≤ 10 nM. The result for `C[C@@H]1OCC2(CCN(c3ccc4nc(Sc5cccc(NC(=O)c6cnccn6)c5Cl)ncc4n3)CC2)[C@@H]1N` [Compound 86, N-(3-((6-((3S,4S)-4-amino-3-methyl-2-oxa-8-azaspiro[4.5]decane-8-yl)pyridinyl[3,2-d]pyrimidine-2-yl)mercapto)-2-chlorophenyl)pyrazine-2-carboxamide] reads ≤ 10 nM; that for `C[C@@H]1OCC2(CCN(c3cnc4nc(Sc5cccc(NC(=O)c6c(O)nc7n(c6=O)CCCC7)c5Cl)ncc4n3)CC2)[C@@H]1N` [Compound 87, N-(3-((6-((3S,4S)-4-amino-3-methyl-2-oxa-8-azaspiro[4.5]decane-8-yl)pteridine-2-yl)mercapto)-2-chlorophenyl)-2-hydroxy-4-oxo-6,7,8,9-tetrahydro-4H-pyridinyl[1,2-a]p yrimidine-3-carboxamide], ≤ 10 nM. For `C[C@@H]1OCC2(CCN(c3ncc4nc(Sc5cccc(NC(=O)c6c(O)nc7n(c6=O)CCCC7)c5Cl)cnc4n3)CC2)[C@@H]1N` [Compound 88, N-(3-((2-((3S,4S)-4-amino-3-methyl-2-oxa-8-azaspiro[4.5]decane-8-yl)pteridine-6-yl)mercapto)-2-chlorophenyl)-2-hydroxy-4-oxo-6,7,8,9-tetrahydro-4H-pyridinyl[1,2-a]p yrimidine-3-carboxamide] the value was ≤ 10 nM; for `C[C@@H]1OCC2(CCN(c3ccc4nc(Sc5cccc(NC(=O)c6c(O)nc7n(c6=O)CCCC7)c5Cl)ncc4n3)CC2)[C@@H]1N` [Compound 89, N-(3-((6-((3S,4S)-4-amino-3-methyl-2-oxa-8-azaspiro[4.5]decane-8-yl)pyridinyl[3,2-d]pyrimidine-2-yl)mercapto)-2-chlorophenyl)-2-hydroxy-4-oxo-6,7,8,9-tetrahydro-4H-pyridinyl[1,2-a]pyrimidine-3-carboxamide], ≤ 10 nM; for `C[C@@H]1OCC2(CCN(c3ncc4nc(Sc5cccc(-c6ccn(C)n6)c5Cl)ccc4n3)CC2)[C@@H]1N` [Compound 90, (3S,4S)-8-(6-((2-chloro-3-(1-methyl-1H-pyrazole-3-yl)phenyl)mercapto)pyridinyl[3,2-b]pyrimidine-2-yl)-3-methyl-2-oxa-8-azaspiro[4.5]decane-4-amine], ≤ 10 nM. For `C[C@@H]1OCC2(CCN(c3ccc4nc(Sc5cccc(-c6ccn(C)n6)c5Cl)cnc4n3)CC2)[C@@H]1N` [Compound 91, (3S,4S)-8-(2-((2-chloro-3-(1-methyl-1H-pyrazole-3-yl)phenyl)mercapto)pyridinyl[2,3-b]pyrazine-6-yl)-3-methyl-2-oxa-8-azaspiro[4.5]decane-4-amine] the value was ≤ 10 nM; for `C[C@@H]1OCC2(CCN(c3cnc4nc(Sc5cccc(-c6ccn(C)n6)c5Cl)ccc4n3)CC2)[C@@H]1N` [Compound 92, (3S,4S)-8-(6-((2-chloro-3-(1-methyl-1H-pyrazole-3-yl)phenyl)mercapto)pyridinyl[2,3-b]pyrazine-2-yl)-3-methyl-2-oxa-8-azaspiro[4.5]decane-4-amine], ≤ 10 nM.

Take `C[C@@H]1OCC2(CCN(c3ncc4nc(Sc5cccc(Oc6ccn(C)n6)c5Cl)cnc4n3)CC2)[C@@H]1N` [Compound 93]: the IC50 was ≤ 10 nM.

As for `C[C@@H]1OCC2(CCN(c3cnc4nc(Sc5cccc(Oc6ccn(C)n6)c5Cl)ncc4n3)CC2)[C@@H]1N` [Compound 94], the concentration for half-maximal inhibition (IC50) was ≤ 10 nM.

Regarding `C[C@@H]1OCC2(CCN(c3ccc4nc(Sc5cccc(Oc6ccn(C)n6)c5Cl)ncc4n3)CC2)[C@@H]1N` [Compound 95], the IC50 was ≤ 10 nM.

With `C[C@@H]1OCC2(CCN(c3ncc4nc(Sc5cccc(NC(=O)c6c(O)nc7n(c6=O)CCCC7)c5Cl)ccc4n3)CC2)[C@@H]1N` [Compound 96, N-(3-((2-((3S,4S)-4-amino-3-methyl-2-oxa-8-azaspiro[4.5]decane-8-yl)pyridinyl[3,2-d]pyrimidine-6-yl)mercapto)-2-chlorophenyl)-2-hydroxy-4-oxo-6,7,8,9-tetrahydro-4H-pyridinyl[1,2-a]pyrimidine-3-carboxamide], the IC50 was ≤ 10 nM. The result for `C[C@@H]1OCC2(CCN(c3ccc4nc(Sc5cccc(NC(=O)c6c(O)nc7n(c6=O)CCCC7)c5Cl)cnc4n3)CC2)[C@@H]1N` [Compound 97, N-(3-((6-((3S,4S)-4-amino-3-methyl-2-oxa-8-azaspiro[4.5]decane-8-yl)pyridinyl[2,3-b]pyrazine-2-yl)mercapto)-2-chlorophenyl)-2-hydroxy-4-oxo-6,7,8,9-tetrahydro-4H-p yridinyl[1,2-a]pyrimidine-3-carboxamide] reads ≤ 10 nM; that for `C[C@@H]1OCC2(CCN(c3cnc4nc(Sc5cccc(NC(=O)c6c(O)nc7n(c6=O)CCCC7)c5Cl)ccc4n3)CC2)[C@@H]1N` [Compound 98, N-(3-((2-((3S,4S)-4-amino-3-methyl-2-oxa-8-azaspiro[4.5]decane-8-yl)pyridinyl[2,3-b]pyrazine-6-yl)mercapto)-2-chlorophenyl)-2-hydroxy-4-oxo-6,7,8,9-tetrahydro-4H-p yridinyl[1,2-a]pyrimidine-3-carboxamide], ≤ 10 nM. For `C[C@@H]1OCC2(CCN(c3cnc(Sc4cccc(-c5ccn(C)n5)c4Cl)nc3)CC2)[C@@H]1N` [Compound 99, (3S,4S)-8-(2-((2-chloro-3-(1-methyl-1H-pyrazole-3-yl)phenyl)mercapto)pyrimidine-5-yl)-3-methyl-2-oxa-8-azaspiro[4.5]decane-4-amine], the IC50 is ≤ 10 nM.

Consider `CCn1ccc(-c2cccc(Sc3ncc(N4CCC5(CC4)CO[C@@H](C)[C@H]5N)cn3)c2Cl)n1` [Compound 100, (3S,4S)-8-(2-((2-chloro-3-(1-ethyl-1H-pyrazole-3-yl)phenyl)mercapto)pyrimidine-5-yl)-3-methyl-2-oxa-8-azaspiro[4.5]decane-4-amine], for which the IC50 is ≤ 10 nM.

Turning to `CC(C)n1ccc(-c2cccc(Sc3ncc(N4CCC5(CC4)CO[C@@H](C)[C@H]5N)cn3)c2Cl)n1` [Compound 101, (3S,4S)-8-(2-((2-chloro-3-(1-isopropyl-1H-pyrazole-3-yl)phenyl)mercapto)pyrimidine-5-yl)-3-methyl-2-oxa-8-azaspiro[4.5]decane-4-amine], the half-maximal inhibitory concentration (IC50) was ≤ 10 nM. The result for `C[C@@H]1OCC2(CCN(c3cnc(Sc4cccc(NC(=O)c5c(O)nc6n(c5=O)CCCC6)c4Cl)nc3)CC2)[C@@H]1N` [Compound 102, N-(3-((5-((3S,4S)-4-amino-3-methyl-2-oxa-8-azaspiro[4.5]decane-8-yl)pyrimidine-2-yl)mercapto)-2-chlorobenzene)-2-hydroxyl-4-oxa-6,7,8,9-tetrahydro-4H-pyridinyl[1,2-a]pyrimidine-3-carboxamide] reads ≤ 10 nM.
